Experimental data published in patent publication US20080167188A1, “Herbicide Combinations Comprising Special Ketoenoles” (priority 2004, published 2008).

Experiments:
Assay type in all cases: in vivo
PESGL = test: field trial, herbicidal activity against PESGL; settings: 2 to 3 repetitions, highest efficacy of three assessment days, g of a.i./ha: Ex. A.5 20, Glufosinate 400, combination 20 + 400
Procedure: (§1) The reported results originate from field trials carried out in 2 to 3 repetitions. The weed grasses or crops are sown. The activities are assessed on three days; what is reported are the highest efficacies.

TRZAS = test: field trial, herbicidal activity against TRZAS; settings: 2 to 3 repetitions, highest efficacy of three assessment days, g of a.i./ha: Ex. A.5 20, Glufosinate 400, combination 20 + 400
Procedure: as §1

ALOMY = test: field trial, herbicidal activity against ALOMY; settings: 2 to 3 repetitions, highest efficacy of three assessment days, g of a.i./ha: Ex. A.1 20, Metazachlor 1000, combination 20 + 1000
Procedure: as §1

AGGRE = test: field trial, herbicidal activity against AGGRE; settings: 2 to 3 repetitions, highest efficacy of three assessment days, g of a.i./ha: Ex. A.1 20, Metazachlor 1000, combination 20 + 1000
Procedure: as §1

BROSTE = test: field trial, herbicidal activity against BROSTE; settings: 2 to 3 repetitions, highest efficacy of three assessment days, g of a.i./ha: Ex. A.1 20, Metazachlor 1000, combination 20 + 1000
Procedure: as §1

SMILES | % Activity PESGL (PESGL) [%] | % Activity TRZAS (TRZAS) [%] | % Activity ALOMY (ALOMY) [%] | % Activity AGGRE (AGGRE) [%] | % Activity BROSTE (BROSTE) [%]
CP(=O)(O)CCC(N)C(=O)O (racemic) [Glufosinate (B4.2), 4-[hydroxy(methyl)phosphinoyl]-DL-homoalanine] | 20 | 20 |  |  | 
CCc1cc(Cl)cc(OC)c1C1=C(O)C2(CCC(OC)CC2)NC1=O (stereo not shown) [Ex. A.1] |  |  | 42 | 60 | 35
CCOC(=O)OC1=C(c2c(CC)cc(Cl)cc2OC)C(=O)NC12CCC(OC)CC2 (stereo not shown) [Ex. A.5] | 70 | 69 |  |  | 
Cc1cccc(C)c1N(Cn1cccn1)C(=O)CCl [Metazachlor (B 3.20), 2-chloro-N-(2,6-dimethylphenyl)-N-(1H-pyrazol-1-ylmethyl)acetamide] |  |  | 28 | 10 | 45
